From patent US12391698B2, “Substituted piperidines and piperazines and methods for the treatment of CNS disorders” (SUVEN LIFE SCIENCES LIMITED, priority 2022, dated 2025)
Counter-ions that a name gives are not always drawn. Like-named read-outs stand apart in the source and are kept apart here.

Key:
[1] = target: cloned human SERT receptor (Homo sapiens, UniProt P31645); test: Determination of Ki at SERT receptor (SPA binding, [3H]-Citalopram); settings: HEK293 recombinant cells, [3H]-Citalopram 2 nM, read-out: Ki hSERT
Sequence of cloned human SERT receptor (P31645 whole entry): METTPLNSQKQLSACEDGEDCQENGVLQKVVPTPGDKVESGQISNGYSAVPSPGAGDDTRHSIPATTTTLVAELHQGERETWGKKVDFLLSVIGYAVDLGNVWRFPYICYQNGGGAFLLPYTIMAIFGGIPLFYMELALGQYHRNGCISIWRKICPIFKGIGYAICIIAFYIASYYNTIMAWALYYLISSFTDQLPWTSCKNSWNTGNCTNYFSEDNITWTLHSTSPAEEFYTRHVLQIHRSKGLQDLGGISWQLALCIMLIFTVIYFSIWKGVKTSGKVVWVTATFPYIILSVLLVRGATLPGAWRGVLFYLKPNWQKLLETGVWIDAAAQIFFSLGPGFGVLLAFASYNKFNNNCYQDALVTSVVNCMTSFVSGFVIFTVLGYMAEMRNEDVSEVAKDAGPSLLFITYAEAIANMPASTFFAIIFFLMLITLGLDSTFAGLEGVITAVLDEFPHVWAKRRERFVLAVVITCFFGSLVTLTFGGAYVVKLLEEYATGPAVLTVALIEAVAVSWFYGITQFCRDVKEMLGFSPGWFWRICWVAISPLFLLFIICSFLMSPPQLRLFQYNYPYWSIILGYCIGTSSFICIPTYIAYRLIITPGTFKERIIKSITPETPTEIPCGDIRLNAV
Protocol: (§1) Compounds were tested according to the following procedure.
• Receptor source: Recombinant mammalian cells (HEK293) • Radioligand: [^3H]-Citalopram (80.8 Ci/mmol) • Final ligand concentration: 2 nM • Non-specific determinant: 0.1 mM Venlafaxine • Reference compound: Venlafaxine • Positive control: Venlafaxine Incubation Conditions:
Reactions were carried out in buffer with pH 7.4 containing 50 mM Tris-HCl, 150 mM NaCl, 5 mM KCl and scintillation proximity assay (SPA) beads (0.1 mg/well) for 3 h at r.t. Radioactivity proximal to SPA beads was determined by scintillation proximity assay and compared to the control values in order to ascertain any interactions of the test compound(s) with cloned human SERT receptor binding site.
Reference: Journal of Pharmacology and Experimental Therapeutics, 1987, 242 (1), 364-371.

[2] = target: T1, hD2S (cloned human dopamine D2S receptor) (Homo sapiens, UniProt P14416); test: Determination of Ki at D2S receptor (radioligand binding, [3H]-Raclopride); settings: CHO-K1 recombinant cells; [3H]-Raclopride 4 nM; read-out: Ki hD2S
T1 construct: expressed in transfected cells; host or cells: CHO-K1
T1 sequence (P14416 1-414 isoform P14416-2): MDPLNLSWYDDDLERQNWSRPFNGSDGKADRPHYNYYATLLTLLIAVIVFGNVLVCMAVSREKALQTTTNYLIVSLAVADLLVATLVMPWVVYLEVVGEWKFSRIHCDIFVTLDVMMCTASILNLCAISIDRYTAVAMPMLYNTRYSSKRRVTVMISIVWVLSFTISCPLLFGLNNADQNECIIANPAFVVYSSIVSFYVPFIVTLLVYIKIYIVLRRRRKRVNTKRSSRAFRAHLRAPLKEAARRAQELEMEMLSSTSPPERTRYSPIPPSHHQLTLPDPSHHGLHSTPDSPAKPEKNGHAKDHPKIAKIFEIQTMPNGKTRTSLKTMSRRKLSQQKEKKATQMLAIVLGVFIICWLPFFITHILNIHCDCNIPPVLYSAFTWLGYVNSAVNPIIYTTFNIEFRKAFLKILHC
Protocol: as §1
(§2) • Receptor source: Recombinant mammalian cells (CHO-K1) • Radioligand: [^3H]-Raclopride (80.8 Ci/mmol) • Final ligand concentration: 4 nM • Non-specific determinant: 0.1 mM Haloperidol • Reference compound: Haloperidol • Positive control: Haloperidol Incubation Conditions:
(§3) Reactions were carried out in buffer with pH 7.4 containing 50 mM Tris-HCl, 120 mM NaCl, 5 mM KCl, 5 mM MgCl2, 1 mM EDTA for 2 h at r.t. The reaction was terminated by rapid vacuum filtration onto the glass fiber filters. Radioactivity trapped onto the filters was determined and compared to the control values in order to ascertain any interactions of the test compound(s) with cloned human dopamine Das receptor binding site.

[3] = target: T2, cloned human 5-HT1A receptor (Homo sapiens, UniProt P08908); test: Determination of Ki at 5-HT1A receptor (radioligand binding, [3H]-8-Hydroxy DPAT); settings: HEK293-EBNA recombinant cells; [3H]-8-Hydroxy DPAT 0.8 nM; read-out: Ki h5-HT1A
T2 construct: expressed in transfected cells; host or cells: HEK293-EBNA
T2 sequence (P08908 1-422): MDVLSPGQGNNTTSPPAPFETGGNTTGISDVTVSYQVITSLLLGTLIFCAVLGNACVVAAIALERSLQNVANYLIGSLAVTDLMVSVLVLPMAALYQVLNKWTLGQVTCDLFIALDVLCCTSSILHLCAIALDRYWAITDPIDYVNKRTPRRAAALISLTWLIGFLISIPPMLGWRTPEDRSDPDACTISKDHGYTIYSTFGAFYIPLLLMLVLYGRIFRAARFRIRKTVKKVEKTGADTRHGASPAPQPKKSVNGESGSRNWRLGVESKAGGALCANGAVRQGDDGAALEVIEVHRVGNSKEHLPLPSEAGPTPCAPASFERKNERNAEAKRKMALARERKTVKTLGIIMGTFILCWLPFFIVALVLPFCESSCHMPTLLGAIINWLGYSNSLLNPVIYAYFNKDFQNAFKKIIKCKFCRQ
Protocol: as §1
• Receptor source: Recombinant mammalian cells (HEK293-EBNA) • Radioligand: [^3H]-8-Hydroxy DPAT (200 Ci/mmol) • Final ligand concentration: 0.8 nM • Non-specific determinant: 0.1 mM U92016A • Reference compound: U92016A • Positive control: U92016A Incubation Conditions:
as §3, with “0.5” for “120”, “EDTA, 10” for “NaCl, 5”, “MgSO4, 0.1% Ascorbic acid” for “KCl, 5 mM MgCl2, 1 mM EDTA”, “5-HT1A” for “dopamine Das”

[4] = target: T3, cloned human 5-HT2A receptor (Homo sapiens, UniProt P28223); test: Determination of Ki at 5-HT2A receptor (radioligand binding, [3H]-Ketanserine); settings: CHO-K1 recombinant cells; [3H]-Ketanserine 1.25 nM; read-out: Ki h5-HT2A
T3 construct: expressed in transfected cells; host or cells: CHO-K1
T3 sequence (P28223 whole entry): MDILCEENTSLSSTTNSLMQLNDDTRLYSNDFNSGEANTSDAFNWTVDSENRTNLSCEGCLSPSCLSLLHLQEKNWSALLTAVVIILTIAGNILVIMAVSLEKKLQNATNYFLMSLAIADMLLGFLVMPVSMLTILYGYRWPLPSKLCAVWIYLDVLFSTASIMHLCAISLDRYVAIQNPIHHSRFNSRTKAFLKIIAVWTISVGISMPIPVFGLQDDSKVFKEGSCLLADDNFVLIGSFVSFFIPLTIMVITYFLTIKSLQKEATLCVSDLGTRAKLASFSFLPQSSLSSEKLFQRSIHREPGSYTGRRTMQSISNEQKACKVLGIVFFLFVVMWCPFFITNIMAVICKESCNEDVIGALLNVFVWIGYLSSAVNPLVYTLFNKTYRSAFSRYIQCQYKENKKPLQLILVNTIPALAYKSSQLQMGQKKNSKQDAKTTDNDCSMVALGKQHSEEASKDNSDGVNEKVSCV
Protocol: as §1
as §2, with “[^3H]-Ketanserine (41.9” for “[^3H]-Raclopride (80.8”, “1.25” for “4”, “1-Napthyl piperazine (1-NP)” for “Haloperidol”
as §3, with “4” for “120”, “CaCl2), 0.1% Ascorbic acid for” for “NaCl, 5 mM KCl, 5 mM MgCl2,”, “1” for “1 mM EDTA for 2”, “5-HT2A” for “dopamine Das”

| Structure (SMILES) | Ki [1] | Ki [2] | Ki [3] | Ki [4] | Ki ([1]; cells printed in μM) |
| --- | --- | --- | --- | --- | --- |
| O=C1C[C@@H]2CCCN2C(=O)N1CCCCN1CCC(c2c[nH]c3ccc(F)cc23)CC1 [Example 7, 2-{4-[4-(5-Fluoro-1H-indol-3-yl)-piperidin-1-yl]-butyl}-tetrahydro-pyrrolo[1,2-c]pyrimidine-1,3-dione oxalate] | 0.0385 µM | 4.5 nM | 1.8 nM | 49.9 nM | – |
| O=C1C[C@@H]2CCCCN2C(=O)N1CCCCN1CCN(c2nsc3ccccc23)CC1 [Example 12, 2-[4-(4-Benzo[d]isothiazol-3-yl-piperazin-1-yl)-butyl]-hexahydro-pyrido[1,2-c]pyrimidine-1,3-dione] | 0.181 µM | 0.6 nM | 0.1 nM | 0.6 nM | – |
| O=C1C[C@@H]2CCCCN2C(=O)N1CCCCN1CCC(c2noc3cc(F)ccc23)CC1 [Example 13, 2-{4-[4-(6-Fluoro-benzo[d]isoxazol-3-yl)-piperidin-1-yl]-butyl}-hexahydro-pyrido[1,2-c]pyrimidine-1,3-dione] | 1.63 µM | 2.5 nM | 14.9 nM | 2.5 nM | – |
| O=C1C[C@@H]2CCCCN2C(=O)N1CCCCN1CCC(c2c[nH]c3ccc(F)cc23)CC1 [Example 15, 2-{4-[4-(5-Fluoro-1H-indol-3-yl)-piperidin-1-yl]-butyl}-hexahydro-pyrido[1,2-c]pyrimidine-1,3-dione] | 0.0269 µM | 2.9 nM | 2.2 nM | 53.6 nM | – |
| COc1ccc2[nH]cc(C3CCN(CCCCN4C(=O)C[C@@H]5CCCCN5C4=O)CC3)c2c1 [Example 16, 2-{4-[4-(5-Methoxy-1H-indol-3-yl)-piperidin-1-yl]-butyl}-hexahydro-pyrido[1,2-c]pyrimidine-1,3-dione] | 0.427 µM | 59.1 nM | 0.6 nM | 1210 nM | – |
| O=C(OCc1ccccc1)N1CCN2C(=O)N(CCCCN3CCN(c4nsc5ccccc45)CC3)C(=O)C[C@@H]2C1 [Example 19, 7-[4-(4-Benzo[d]isothiazol-3-yl-piperazin-1-yl)-butyl]-6,8-dioxo-octahydro-pyrazino[1,2-c]pyrimidine-2-carboxylic acid benzyl ester] | 0.126 µM | 3.2 nM | 1.1 nM | 0.8 nM | – |
| O=C(OCc1ccccc1)N1CCN2C(=O)N(CCCCN3CCN(c4nsc5ccccc45)CC3)C(=O)C[C@@H]2C1 [Example 20, 7-[4-(4-Benzo[d]isothiazol-3-yl-piperazin-1-yl)-butyl]-6,8-dioxo-octahydro-pyrazino[1,2-c]pyrimidine-2-carboxylic acid benzyl ester fumarate] | 0.148 µM | 2.7 nM | 1.3 nM | 1.1 nM | – |
| O=C(OCc1ccccc1)N1CCN2C(=O)N(CCCCN3CCC(c4noc5cc(F)ccc45)CC3)C(=O)CC2C1 (stereo not shown) [Example 22, 7-{4-[4-(6-Fluoro-benzo[d]isoxazol-3-yl)-piperidin-1-yl]-butyl}-6,8-dioxo-octahydro-pyrazino[1,2-c]pyrimidine-2-carboxylic acid benzyl ester fumarate] | 0.279 µM | 2.5 nM | 84.1 nM | 1.5 nM | – |
| O=C1C[C@@H]2CCCN2C(=O)N1CCCN1CCN(c2nsc3ccccc23)CC1 [Example 23, 2-[3-(4-benzo[d]isothiazol-3-yl-piperazin-1-yl)-propyl]tetrahydro-pyrrolo[1,2-c]pyrimidine-1,3-dione] | 0.918 µM | 22.3 nM | 21.4 nM | 5.3 nM | – |
| O=C1C[C@@H]2CCCN2C(=O)N1CCCN1CCC(c2noc3cc(F)ccc23)CC1 [Example 24, 2-{3-[4-(6-Fluoro-benzo[d]isoxazol-3-yl)-piperidin-1-yl]-propyl}-tetrahydro-pyrrolo[1,2-c]pyrimidine-1,3-dione] | – | 103 nM | 1690 nM | 7.1 nM | > 10 µM |
| O=C1C[C@@H]2CCCN2C(=O)N1CCCN1CCC(c2c[nH]c3ccc(F)cc23)CC1 [Example 25, 2-{3-[4-(5-Fluoro-1H-indol-3-yl)-piperidin-1-yl]-propyl}-tetrahydro-pyrrolo[1,2-c]pyrimidine-1,3-dione] | 0.298 µM | 23.8 nM | 58.6 nM | 195 nM | – |
| O=C1C[C@H]2COCCN2C(=O)N1C[C@H]1CCCC[C@H]1CN1CCN(c2nsc3ccccc23)CC1 [Example 30, 7-[2-(4-Benzo[d]isothiazol-3-yl-piperazin-1-ylmethyl)-cyclohexylmethyl]-tetrahydro-pyrimido[6,1-c][1,4]oxazine-6,8-dione] | 9.35 µM | 0.6 nM | – | 8.5 nM | – |
| COC(=O)N1CCN2C(=O)N(CCCCN3CCN(c4nsc5ccccc45)CC3)C(=O)C[C@@H]2C1 [Example 33, 7-[4-(4-Benzo[d]isothiazol-3-yl-piperazin-1-yl)-butyl]-6,8-dioxo-octahydro-pyrazino[1,2-c]pyrimidine-2-carboxylic acid methyl ester] | 0.0611 µM | 1.7 nM | 0.3 nM | 0.8 nM | – |
| COC(=O)N1CCN2C(=O)N(CCCCN3CCN(c4nsc5ccccc45)CC3)C(=O)CC2C1 (stereo not shown) [Example 34, 7-[4-(4-Benzo[d]isothiazol-3-yl-piperazin-1-yl)-butyl]-6,8-dioxo-octahydro-pyrazino[1,2-c]pyrimidine-2-carboxylic acid methyl ester fumarate] | 0.152 µM | 2.4 nM | 1.3 nM | 0.5 nM | – |
| COC(=O)N1CCN2C(=O)N(CCCCN3CCC(c4noc5cc(F)ccc45)CC3)C(=O)C[C@@H]2C1 [Example 35, 7-{4-[4-(6-Fluoro-benzo[d]isoxazol-3-yl)-piperidin-1-yl]-butyl}-6,8-dioxo-octahydro-pyrazino[1,2-c]pyrimidine-2-carboxylic acid methyl ester] | 0.975 µM | 4.7 nM | 45.7 nM | 4.8 nM | – |
| COC(=O)N1CCN2C(=O)N(CCCCN3CCC(c4noc5cc(F)ccc45)CC3)C(=O)C[C@@H]2C1 [Example 36, 7-{4-[4-(6-Fluoro-benzo[d]isoxazol-3-yl)-piperidin-1-yl]-butyl}-6,8-dioxo-octahydro-pyrazino[1,2-c]pyrimidine-2-carboxylic acid methyl ester fumarate] | 1.48 µM | 3.3 nM | 130 nM | 2.2 nM | – |
| CC(=O)N1CCN2C(=O)N(CCCCN3CCN(c4nsc5ccccc45)CC3)C(=O)C[C@@H]2C1 [Example 37, 2-Acetyl-7-[4-(4-benzo[d]isothiazol-3-yl-piperazin-1-yl)-butyl]-hexahydro-pyrazino[1,2-c]pyrimidine-6,8-dione] | 1.1 µM | 8.2 nM | 0.3 nM | 1.5 nM | – |
| CC(=O)N1CCN2C(=O)N(CCCCN3CCN(c4nsc5ccccc45)CC3)C(=O)C[C@@H]2C1 [Example 38, 2-Acetyl-7-[4-(4-benzo[d]isothiazol-3-yl-piperazin-1-yl)-butyl]-hexahydro-pyrazino[1,2-c]pyrimidine-6,8-dione fumarate] | 0.953 µM | 4.5 nM | – | 2.2 nM | – |
